Where two headings read alike, the source gives them in different places.
Assays:
[1] = molecular target: T1, IRAK1 (Homo sapiens, UniProt P51617); test: RBC HotSpot Kinase Assay, IRAK1; assay type: biochemical; details: isolated kinase enzyme, 33P-ATP, P81 filter-binding
T1 construct: purchased Reaction Biology (RBC HotSpot)
Outline: (§1)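 Radiometric HotSpot assay of catalytic activity with isolated recombinant kinase, possibly truncated or kinase domain only. Buffer: 20 mM Hepes pH 7.5, 10 mM MgCl2, 1 mM EGTA, 0.01% Brij35, 0.02 mg/ml BSA, 0.1 mM Na3VO4, 2 mM DTT, 1% DMSO, with cofactors specific to each kinase.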

[2] = system: NF-κB-inducible SEAP reporter in THP-1-Blue NF-κB cells; test: NF-kB SEAP reporter assay in THP-1-Blue NF-κB cells; assay type: cell-based; details: 24 hours
Protocol: THP-1-Blue NF-κB cells (InvivoGen) carrying a stable integrated NF-κB-inducible secreted embryonic alkaline phosphatase (SEAP) reporter construct were plated at a concentration of 1×10^5 cells per well. The cells were stimulated with Pam3CSK4 (1 ng/mL) or hIL1B (1 ng/mL). After 10-20 minutes, the cells were then treated with vehicle (DMSO) or serial dilutions of the test compounds (10 doses tested for each test compound, with a 1:10 dilution series starting at 1 μM or 3 μM) with a final volume of 200 μL for 24 hours at 37° C. After 24 hours, the cells were centrifuged and 20 μL supernatant was incubated with 180 μL QUANTI-Blue reagent at 37° C. for 30-60 minutes. The levels of NF-κB-induced was measured in a microplate reader at 620 nm.

[3] = system: MOLM14 D835Y cells; test: MOLM14 D835Y cell viability assay (Cell Titer Glo); assay type: cell-based; details: Homo sapiens, MOLM-14, 48 h, cell viability, Cell Titer Glo, 48 hours; read-out: MOLM14 D835Y IC50
Outline: (§2)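 MOLM14 cells with FLT3 D835Y or F691L kinase-domain resistance mutations seeded at 1000 cells/well and exposed to compound for 48 h under standard incubator conditions. Viability read by CellTiter-Glo luminescence after 15 min at room temperature.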

[4] = molecular target: T2, IRAK4 (Homo sapiens, UniProt Q9NWZ3); test: RBC HotSpot Kinase Assay, IRAK4; assay type: biochemical; set-up: purchased Reaction Biology (RBC HotSpot); details: isolated kinase enzyme, 33P-ATP, P81 filter-binding
T2 sequence (Q9NWZ3 1-460): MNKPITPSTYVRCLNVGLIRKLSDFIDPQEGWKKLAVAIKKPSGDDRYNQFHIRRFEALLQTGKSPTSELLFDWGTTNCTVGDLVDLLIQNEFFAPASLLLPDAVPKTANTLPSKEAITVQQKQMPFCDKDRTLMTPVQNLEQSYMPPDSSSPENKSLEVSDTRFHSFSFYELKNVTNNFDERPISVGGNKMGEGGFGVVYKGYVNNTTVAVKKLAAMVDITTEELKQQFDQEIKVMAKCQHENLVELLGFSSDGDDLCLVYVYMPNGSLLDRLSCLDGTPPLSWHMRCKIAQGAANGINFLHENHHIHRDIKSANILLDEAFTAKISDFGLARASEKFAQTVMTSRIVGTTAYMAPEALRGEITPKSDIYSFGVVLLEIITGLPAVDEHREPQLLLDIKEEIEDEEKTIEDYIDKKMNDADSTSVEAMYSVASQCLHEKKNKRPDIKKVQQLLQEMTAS
Outline: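 Radiometric filter-binding activity assay with isolated recombinant kinase (construct may be truncated or catalytic domain only) in 20 mM Hepes pH 7.5, 10 mM MgCl2, 1 mM EGTA, 2 mM DTT, 1% DMSO. Compound preincubated 20 min with kinase/substrate; reaction started with 33P-ATP, run 2 h at room temperature.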

[5] = molecular target: T3, FLT3 (Homo sapiens, UniProt P36888); test: RBC HotSpot Kinase Assay, FLT3; assay type: biochemical; set-up: purchased Reaction Biology (RBC HotSpot); details: isolated kinase enzyme, 33P-ATP, P81 filter-binding
T3 sequence (P36888 27-993): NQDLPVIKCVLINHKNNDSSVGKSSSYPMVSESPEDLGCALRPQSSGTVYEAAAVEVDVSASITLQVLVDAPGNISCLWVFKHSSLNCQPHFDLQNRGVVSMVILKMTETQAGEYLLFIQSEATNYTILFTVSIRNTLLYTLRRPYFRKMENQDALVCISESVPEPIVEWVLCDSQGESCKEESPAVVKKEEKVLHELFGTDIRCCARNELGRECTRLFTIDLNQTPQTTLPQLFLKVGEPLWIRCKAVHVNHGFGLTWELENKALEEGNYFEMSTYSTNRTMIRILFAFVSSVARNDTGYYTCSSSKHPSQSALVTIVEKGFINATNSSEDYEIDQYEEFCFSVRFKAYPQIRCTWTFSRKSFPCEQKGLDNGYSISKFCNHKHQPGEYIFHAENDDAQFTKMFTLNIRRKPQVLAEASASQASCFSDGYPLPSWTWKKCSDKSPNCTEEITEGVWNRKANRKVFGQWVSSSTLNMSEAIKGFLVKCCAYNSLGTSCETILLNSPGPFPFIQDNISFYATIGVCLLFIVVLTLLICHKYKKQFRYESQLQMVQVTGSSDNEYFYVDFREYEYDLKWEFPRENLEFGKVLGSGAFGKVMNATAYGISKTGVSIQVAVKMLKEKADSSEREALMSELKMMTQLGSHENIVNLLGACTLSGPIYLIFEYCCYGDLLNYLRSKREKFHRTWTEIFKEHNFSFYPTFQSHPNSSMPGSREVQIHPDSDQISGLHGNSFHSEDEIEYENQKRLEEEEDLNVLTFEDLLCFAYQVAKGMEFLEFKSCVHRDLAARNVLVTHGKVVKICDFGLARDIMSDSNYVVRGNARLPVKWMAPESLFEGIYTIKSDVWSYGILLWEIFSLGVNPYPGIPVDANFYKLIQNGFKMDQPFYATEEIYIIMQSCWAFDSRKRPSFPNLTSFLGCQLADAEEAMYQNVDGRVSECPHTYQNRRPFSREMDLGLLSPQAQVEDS
Outline: as §1

[6] = system: MOLM14 F691L cells; test: MOLM14 F691L cell viability assay (Cell Titer Glo); assay type: cell-based; details: Homo sapiens, MOLM-14; cell viability, Cell Titer Glo, 48 hours; read-out: MOLM14 F691L IC50
Outline: as §2

[7] = THP-1-Blue NF-κB cells stimulated with Pam3CSK4 (1 ng/mL), read-out: NF-κB Pam3SCK4 IC50
[8] = THP-1-Blue NF-κB cells stimulated with hIL1B (1 ng/mL), read-out: NF-κB IL1B IC50

T1 sequence (P51617 whole entry): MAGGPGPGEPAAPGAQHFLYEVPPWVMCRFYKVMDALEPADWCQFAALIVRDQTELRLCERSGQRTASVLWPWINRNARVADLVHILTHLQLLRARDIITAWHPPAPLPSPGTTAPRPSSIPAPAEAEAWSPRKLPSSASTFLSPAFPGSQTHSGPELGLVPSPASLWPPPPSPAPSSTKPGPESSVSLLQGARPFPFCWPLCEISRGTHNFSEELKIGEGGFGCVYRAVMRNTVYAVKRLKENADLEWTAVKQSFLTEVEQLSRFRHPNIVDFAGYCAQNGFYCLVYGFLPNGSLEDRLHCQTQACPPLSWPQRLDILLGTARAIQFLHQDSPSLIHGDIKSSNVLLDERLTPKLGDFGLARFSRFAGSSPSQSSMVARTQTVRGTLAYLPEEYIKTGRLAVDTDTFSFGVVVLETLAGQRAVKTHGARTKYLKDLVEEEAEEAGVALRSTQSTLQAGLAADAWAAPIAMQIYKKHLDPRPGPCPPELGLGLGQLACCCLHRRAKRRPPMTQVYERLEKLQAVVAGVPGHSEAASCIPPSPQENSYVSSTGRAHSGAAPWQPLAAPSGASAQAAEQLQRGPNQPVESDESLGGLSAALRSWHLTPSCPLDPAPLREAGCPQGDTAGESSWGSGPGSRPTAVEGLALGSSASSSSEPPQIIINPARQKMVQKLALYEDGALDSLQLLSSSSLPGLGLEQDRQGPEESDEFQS

SMILES	IC50 [1] [µM]	IC50 [2, 7] [µM]	IC50 [2, 8] [µM]	IC50 [3] [µM]	IC50 [4] [µM]	IC50 [5] [µM]	IC50 [6] [µM]
CC(O)(c1ccc2ncc(-c3nc(N[C@@H]4CCCNC4)ncc3F)n2c1)C(F)(F)F (single isomer, unassigned) [Compound 37a]	0.002	0.07	0.058	0.032	0.002	< 0.0005	–
COc1cc2ncc(-c3nc(N[C@@H]4CCCNC4)ncc3F)n2nc1C1CC1 [Compound 3a, (R)-4-(6-cyclopropyl-7-methoxyimidazo[1,2-b]pyridazin-3-yl)-5-fluoro-N-(piperidin-3-yl)pyrimidin-2-amine]	0.002	0.04	0.058	0.001	< 0.0005	< 0.0005	0.005
F[C@H]1CCNC[C@@H]1Nc1cncc(-c2cnc3cc(OC4CC4)c(C4CC4)nn23)n1 [Compound 13a, 6-(7-cyclopropoxy-6-cyclopropylimidazo[1,2-b]pyridazin-3-yl)-N-((3S,4S)-4-fluoropiperidin-3-yl)pyrazin-2-amine]	0.055	0.512	0.334	0.115	0.005	< 0.0005	–
COc1cc2ncc(-c3ccnc(N[C@H]4CNCC[C@@H]4F)n3)n2nc1C1CC(F)(F)C1 [Compound 19a, 4-(6-(3,3-difluorocyclobutyl)-7-methoxyimidazo[1,2-b]pyridazin-3-yl)-N-((3S,4S)-4-fluoropiperidin-3-yl)pyrimidin-2-amine]	0.07	0.701	0.567	0.051	0.013	< 0.0005	–
COc1cc2ncc(-c3nc(N[C@@H]4CCCNC4)ncc3F)n2nc1C1CC(F)(F)C1 [Compound 51a, (R)-4-(6-(3,3-difluorocyclobutyl)-7-methoxyimidazo[1,2-b]pyridazin-3-yl)-5-fluoro-N-(piperidin-3-yl)pyrimidin-2-amine]	0.003	0.136	0.135	0.009	0.003	< 0.0005	–
COc1cc2ncc(-c3nc(N[C@@H]4CCCNC4)ncc3F)n2nc1C12CC(C1)C2 [Compound 68a, (R)-4-(6-(bicyclo[1.1.1]pentan-1-yl)-7-methoxyimidazo[1,2-b]pyridazin-3-yl)-5-fluoro-N-(piperidin-3-yl)pyrimidin-2-amine]	0.0009	0.144	0.108	0.003	0.0008	< 0.0005	0.02
COc1cc2ncc(-c3nc(N[C@@H]4CCCNC4)ncc3F)n2nc1C1COC1 [Compound 94a, (R)-5-fluoro-4-(7-methoxy-6-(oxetan-3-yl)imidazo[1,2-b]pyridazin-3-yl)-N-(piperidin-3-yl)pyrimidin-2-amine]	0.028	0.188	0.206	0.006	0.004	< 0.0005	0.04
COc1cc2ncc(-c3nc(N[C@H]4CNC[C@@H]4F)ncc3F)n2nc1N1CCOCC1 [Compound 119a, 5-fluoro-N-((3S,4S)-4-fluoropyrrolidin-3-yl)-4-(7-methoxy-6-morpholinoimidazo[1,2-b]pyridazin-3-yl)pyrimidin-2-amine]	0.001	0.057	0.069	0.004	< 0.0005	< 0.0005	0.045
COc1cc2ncc(-c3nc(N[C@@H]4CCCNC4)ncc3F)n2nc1N1CCOCC1 [Compound 120a, (R)-5-fluoro-4-(7-methoxy-6-morpholinoimidazo[1,2-b]pyridazin-3-yl)-N-(piperidin-3-yl)pyrimidin-2-amine]	0.01	0.339	0.217	0.005	0.01	< 0.0005	0.045
COc1cc2ncc(-c3nc(N[C@H]4CNCC[C@@H]4F)ncc3F)n2nc1N1CCOCC1 [Compound 121a, 5-fluoro-N-((3S,4S)-4-fluoropiperidin-3-yl)-4-(7-methoxy-6-morpholinoimidazo[1,2-b]pyridazin-3-yl)pyrimidin-2-amine]	0.001	0.089	0.057	0.002	0.0007	< 0.0005	0.02
COc1cc2ncc(-c3nc(N[C@H]4CNCC[C@@H]4F)ncc3F)n2nc1N1CCS(=O)(=O)CC1 [Compound 122a, 4-(3-(5-fluoro-2-(((3S,4S)-4-fluoropiperidin-3-yl)amino)pyrimidin-4-yl)-7-methoxyimidazo[1,2-b]pyridazin-6-yl)thiomorpholine 1,1-dioxide]	0.022	0.407	0.407	0.011	0.018	< 0.0005	0.127
COc1cc2ncc(-c3nc(N[C@H]4CNCC[C@@H]4F)ncc3F)n2nc1[C@H]1C[C@H](O)C1 [Compound 125a, (Trans)-3-(3-(5-fluoro-2-(((3S,4S)-4-fluoropiperidin-3-yl)amino)pyrimidin-4-yl)-7-methoxyimidazo[1,2-b]pyridazin-6-yl)cyclobutan-1-ol]	< 0.0005	0.03	0.029	0.002	< 0.0005	< 0.0005	0.016
COc1cc2ncc(-c3nc(N[C@H]4CNCC[C@@H]4F)ncc3F)n2nc1[C@H]1C[C@@H](O)C1 [Compound 126a, Cis-3-(3-(5-fluoro-2-(((3S,4S)-4-fluoropiperidin-3-yl)amino)pyrimidin-4-yl)-7-methoxyimidazo[1,2-b]pyridazin-6-yl)cyclobutan-1-ol]	0.037	0.192	0.183	0.004	< 0.0005	< 0.0005	0.08
